In article PMC5578599, “Programmed cell death in Acanthamoeba castellanii Neff induced by several molecules present in olive leaf extracts” (PLoS ONE, 2017):
Converted amounts (≈) assume the structure as drawn. “Also recorded” adds a separate entry of the source. Read-outs that look alike come from different tables or passages of the source. Each block holds one compound with its values, some of them ahead of it.

Experiments:
[1] = test system: Acanthamoeba castellanii Neff (ATCC 30010); assay: Alamar Blue assay against the trophozoite stage, A. castellanii Neff; format: cell-based; conditions: for IC90: ATCC30010, trophozoites, Alamar Blue
Method: (§1) The strains used in this study included a type strain: Acanthamoeba castellanii Neff (ATCC 30010), and two clinical isolates, CLC-16, genotype T3; and CLC-51, genotype T1, which were isolated in a previous study. The strains were axenically grown in PYG medium (0.75% (w/v) proteose peptone, 0.75% (w/v) yeast extract and 1.5% (w/v) glucose) containing 40 μg/ml of gentamicin (Biochrom AG, Cultek, Granollers, Barcelona, Spain).
(§2) The anti-Acanthamoeba activities of the tested molecules were determined using the Alamar Blue® assay as previously described. Briefly, Acanthamoeba strains were seeded in duplicate on a 96-well microtiter plates with 50μl from a stock solution of 10^4 cells/ml. Amoebae were left to adhere for 15 min process which was checked using a Leika DMIL inverted microscope (Leika, Wetzlar, Germany). After that, 50 μl of serial dilutions of the molecules to be evaluated were added to the wells (In all tests, 1% DMSO was used to dissolve the highest dose of the compounds without inducing any effects on the parasites). Finally the Alamar Blue Reagent® (Life Technologies, Madrid, Spain) was placed into each well at an amount equal to 10% of the final volume. Test plates containing Alamar Blue were then incubated for 120 h at 28°C with a slight agitation.
(§3) Subsequently the plates were analyzed, during an interval of time between 72 and 144 h, on an EnSpire® Multimode Plate Reader (Perkin Elmer, Madrid, Spain) using a test wavelength of 570 nm and a reference wavelength of 630 nm. Percentages of growth inhibition, 50% and 90% inhibitory concentrations (IC50 and IC90) were calculated by linear regression analysis with 95% confidence limits. All experiments were performed three times, and the mean values were also calculated.

[2] = test system: Acanthamoeba castellanii Neff (ATCC 30010); assay: as above; format: cell-based; conditions: IC50/96 h; for IC50: Acanthamoeba castellanii, ATCC30010, trophozoites; for IC50 A. Neff: trophozoites
[3] = test system: A. Neff; assay: JC-1 mitochondrial membrane potential; format: cell-based, Acanthamoeba castellanii; conditions: IC90, 24 hours
Method: The ΔΨm was measured using JC-1 Mitochondrial Membrane Potential Assay Kit (Cayman Chemical, Vitro, Madrid, Spain). This lipophilic cationic probe accumulates in the mitochondrial matrix according to the membrane potential. In healthy cells with a high ΔΨm, JC-1 spontaneously forms complexes known as J-aggregates, showing intense red fluorescence (emission at 595 nm). […] In brief, amoebae, after 24 hours of incubation with different concentrations of the tested compounds, were harvested and washed with buffer. The cells were then incubated at 26°C for 30 minutes with JC-1 dye. Cells were then analyzed by fluorescence measurement in black plates through spectrofluorometer using 490 nm as excitation wavelength. Data presented here are representative of three experiments. The ratio of the reading at 595 nm to the reading at 535 nm was considered as the relative ΔΨm value.

[4] = test system: CLC-16, genotype T3; assay: Alamar Blue assay against the trophozoite stage, clinical isolate CLC-16; format: cell-based; conditions: Acanthamoeba, trophozoites, IC50/96 h
Method: as §1, §2, §3

[5] = test system: macrophages J774.A1; assay: LDH release cytotoxicity test; format: cell-based, murine; conditions: for Cytotoxicity level at the IC50 against Acanthamoeba / Cytotoxicity level at the IC90 against Acanthamoeba: J774A.1 murine macrophages, 24 hours, LDH release; for Cytotoxicity level at the IC50 against Acanthamoeba: compound at its IC50; for Cytotoxicity level at the IC90 against Acanthamoeba: compound at its IC90
Method: A commercial kit was used for the evaluation of the induced cytotoxic effects of tested compounds based on the measurement of lactate dehydrogenase (LDH) quantity released to the media (LDH Cytotoxicity Detection Kit, Roche Applied Science, Madrid, Spain), following the manufacturer's instructions. Briefly, the macrophages J774.A1 (ATCC # TIB-67) were incubated with different concentrations of the tested compounds for 24 hours in duplicate. After incubation, supernatants were obtained and LDH levels were determined following manufacturer′s instructions. To determine the cytotoxicity percentages, the average absorbance values of the duplicates were calculated and compared with negative and positive controls. Cytotoxic levels were determined as previously described.

[6] = test system: CLC-51, genotype T1; assay: Alamar Blue assay against the trophozoite stage, clinical isolate CLC-51; format: cell-based; conditions: Acanthamoeba, trophozoites, IC50/96 h
Method: as §1, §2, §3

[7] = test system: A. Neff membrane; assay: SYTOX Green plasma membrane permeability; format: cell-based, Acanthamoeba castellanii; conditions: IC90, SYTOX Green, relative to Triton X-100 positive control
Method: The SYTOX® Green assay was performed to detect membrane permeability alterations on the parasites. Briefly, 10^5 amoebae/ml were incubated with the SYTOX® Green at a final concentration of 1 μM (Molecular Probes®) for 30 min in the dark at 26°C. Subsequently, parasites were disposed to black plates and the tested compounds were added at the IC90. The increase in fluorescence due to binding of the fluorescent marker to the amoebic DNA was measured using an EnSpire® Multimode Plate Reader (Perkin Elmer, Madrid, Spain) with excitation wavelength of 504 nm and emission wavelength at 523 nm, and expressed as percentage relative to full permeabilized cells achieved by the addition of 0.1% Triton X-100 [17–19].

[8] = test system: Acanthamoeba castellanii Neff; assay: Annexin-V/PI image-based cytometry for apoptosis; format: cell-based; conditions: treated with IC90, 24 h
Method: Annexin-V/propidium iodide (PI) double staining assay was performed using the Tali® Apoptosis Kit—Annexin V Alexa Fluor® 488 & Propidium Iodide according to the manufacturer's instructions (Life Technologies, Madrid, Spain). […] After that, cells were centrifuged and resuspended in ABB containing 1 μl of PI and incubated for 3 min at room temperature. Finally, 25 μl of the stained cells were loaded into a Tali® Cellular Analysis Slide and were analysed in the Tali® Image-Based Cytometer. Data were collected using the Tali® data acquisition and analysis software (Life Technologies, Madrid, Spain).

SMILES: CC1(C)CC[C@]2(C(=O)O)CC[C@]3(C)C(=CC[C@@H]4[C@@]5(C)C[C@@H](O)[C@H](O)C(C)(C)[C@@H]5CC[C@]43C)[C@@H]2C1 [Maslinic acid]
IC50 ([1]; ATCC30010, read-out: IC50 A. Neff): 30.9 ± 1.33 µg/mL (≈ 65.3 µM)

SMILES: O=c1oc2c(O)c(O)cc3c(=O)oc4c(O)c(O)cc1c4c23 [Ellagic acid]
IC50 [2]: 67.4 ± 3.59 µg/mL (≈ 223 µM)

SMILES: COc1cc(C=O)ccc1O [Vanillin]
IC90 [1]: 123 µg/mL (≈ 810 µM)
Decrease of the membrane potential (ΔΨm) [3]: 36%
IC50 [4]: 58.1 ± 3.77 µg/mL (≈ 382 µM)
Cytotoxicity level at the IC50 against Acanthamoeba [5]: low cytotoxicity (Values between 10 and 25% correspond to low cytotoxicity)
IC50 [6]: 37.2 ± 2.85 µg/mL (≈ 244 µM)
IC50 [2]: 25.6 ± 2.1 µg/mL (≈ 168 µM)
Plasma membrane permeabilization [7]: caused plasma membrane permeability

SMILES: O=C(/C=C/c1ccc(O)c(O)c1)O[C@@H]1C[C@](O)(C(=O)O)C[C@@H](O)[C@H]1O [Chlorogenic acid]
IC50 [2]: > 100 µg/mL

SMILES: CC1(C)CC[C@]2(C(=O)O)CC[C@]3(C)C(=CC[C@@H]4[C@@]5(C)CC[C@H](O)C(C)(C)[C@@H]5CC[C@]43C)[C@@H]2C1 [Oleanolic acid]
IC50 [2]: 43.7 ± 3.34 µg/mL (≈ 95.6 µM)

SMILES: COc1cc(C(=O)O)ccc1O [Vanillic acid]
IC90 [1]: 133 µg/mL (≈ 789 µM)
Decrease of the membrane potential (ΔΨm) [3]: 68%
IC50 [4]: 65.4 ± 0.89 µg/mL (≈ 389 µM)
Cytotoxicity level at the IC50 against Acanthamoeba [5]: low cytotoxicity (Values between 10 and 25% correspond to low cytotoxicity)
IC50 [6]: 61.7 ± 4.43 µg/mL (≈ 367 µM)
IC50 [2]: 34.7 ± 1.32 µg/mL (≈ 206 µM)
Plasma membrane permeabilization [7]: induced the higher permeabilization; also recorded: caused plasma membrane permeability

SMILES: O=c1c(O)c(-c2ccc(O)c(O)c2)oc2cc(O)cc(O)c12 [Quercetin hydrate]
IC50 [2]: > 100 µg/mL

SMILES: C[C@H]1[C@H](C)CC[C@]2(C(=O)O)CC[C@]3(C)C(=CC[C@@H]4[C@@]5(C)CC[C@H](O)C(C)(C)[C@@H]5CC[C@]43C)[C@H]12 [Ursolic acid]
IC90 [1]: 119 µg/mL (≈ 261 µM)
Percentage of apoptotic cells [8]: 26%
Decrease of the membrane potential (ΔΨm) [3]: 80%
IC50 [4]: 55 ± 1.21 µg/mL (≈ 120 µM)
IC50 [6]: 28 ± 2.26 µg/mL (≈ 61.2 µM)
IC50 A. Neff [2]: 23.94 ± 1.14 µg/mL (≈ 52.4 µM)

SMILES: O=c1cc(-c2ccc(O)c(O)c2)oc2cc(O[C@@H]3O[C@H](CO)[C@@H](O)[C@H](O)[C@H]3O)cc(O)c12 [Luteolin 7-o-glucoside]
IC50 A. Neff [2]: 61.98 ± 3.93 µg/mL (≈ 138 µM)

SMILES: C[C@@H]1O[C@@H](OC[C@H]2O[C@@H](Oc3c(-c4ccc(O)c(O)c4)oc4cc(O)cc(O)c4c3=O)[C@H](O)[C@@H](O)[C@@H]2O)[C@H](O)[C@H](O)[C@H]1O [Rutin]
IC50 [2]: 61.4 ± 5.44 µg/mL (≈ 101 µM)

SMILES: COc1cc(C(=O)O)cc(OC)c1O [Syringic acid]
IC90 [1]: 119 µg/mL (≈ 602 µM)
Decrease of the membrane potential (ΔΨm) [3]: 68%
IC50 [4]: 51.5 ± 2.41 µg/mL (≈ 260 µM)
Cytotoxicity (in words) ([5]; J774A.1 macrophages, Fig 2): lowest toxic levels
Cytotoxicity level at the IC50 against Acanthamoeba [5]: low cytotoxicity (Values between 10 and 25% correspond to low cytotoxicity)
Cytotoxicity level at the IC90 against Acanthamoeba [5]: low cytotoxicity (Values between 10 and 25% correspond to low cytotoxicity)
IC50 [6]: 63.07 ± 0.56 µg/mL (≈ 318 µM)
IC50 [2]: 22.9 ± 2.14 µg/mL (≈ 116 µM)
Plasma membrane permeabilization [7]: induced the higher permeabilization; also recorded: caused plasma membrane permeability

SMILES: O=c1cc(-c2ccc(O)c(O)c2)oc2cc(O)cc(O)c12 [Luteolin]
IC50 [4]: 83.1 ± 0.89 µg/mL (≈ 290 µM)
IC50 [6]: 26.6 ± 1.75 µg/mL (≈ 93 µM)
IC50 [2]: 28 ± 1.73 µg/mL (≈ 97.7 µM)

SMILES: O=c1cc(-c2ccc(O)cc2)oc2cc(O)cc(O)c12 [Apigenine]
IC50 [4]: 57 ± 2.68 µg/mL (≈ 211 µM)
Cytotoxicity level at the IC50 against Acanthamoeba [5]: high cytotoxicity (abve 40% correspond to high cytotoxicity)
Cytotoxicity level at the IC90 against Acanthamoeba [5]: high cytotoxicity (abve 40% correspond to high cytotoxicity)
IC50 [6]: 20.2 ± 0.73 µg/mL (≈ 74.6 µM)
IC50 [2]: 6.59 ± 0.39 µg/mL (≈ 24.4 µM)

Further lines, results first:

IC50 A. Neff [2]: 65.75 ± 3.97 µg/mL (≈ 401 µM)
SMILES: O=C(O)/C=C/c1cccc(O)c1 [m-coumaric acid]

IC50 [2]: 63.77 ± 0.34 µg/mL (≈ 462 µM)
SMILES: OCCc1ccc(O)cc1 [Tyrosol]

IC50 [2]: > 100 µg/mL
SMILES: C[C@@H]1O[C@@H](O[C@@H]2[C@@H](O)[C@H](OCCc3ccc(O)c(O)c3)O[C@H](CO)[C@H]2OC(=O)/C=C/c2ccc(O)c(O)c2)[C@H](O)[C@H](O)[C@H]1O [Verbascoside]

IC50 [2]: 57.5 ± 4.32 µg/mL (≈ 106 µM)
SMILES: C/C=C1/[C@H](O[C@@H]2O[C@H](CO)[C@@H](O)[C@H](O)[C@H]2O)OC=C(C(=O)OC)[C@H]1CC(=O)OCCc1ccc(O)c(O)c1 [Oleuropein]

IC50 A. Neff [2]: 62.03 ± 1.78 µg/mL (≈ 319 µM)
SMILES: COc1cc(/C=C/C(=O)O)ccc1O [Ferulic acid]

IC50 [2]: 72.19 ± 0.19 µg/mL (≈ 440 µM)
SMILES: O=C(O)/C=C/c1ccc(O)cc1 [p-coumaric acid]

IC50 [2]: > 100 µg/mL
SMILES: O=C(O)c1cc(O)c(O)c(O)c1 [Gallic acid]

IC50 [2]: > 100 µg/mL
SMILES: OCCc1ccc(O)c(O)c1 [Hydroxytyrosol]

IC50 [2]: > 100 µg/mL
SMILES: O=C(O)/C=C/c1ccc(O)c(O)c1 [Caffeic acid]

IC50 A. Neff [2]: >100 µg/mL
SMILES: O.Oc1cc(O)c2c(c1)O[C@H](c1ccc(O)c(O)c1)[C@@H](O)C2 [Catechin hydrate]

IC50 A. Neff [2]: 36.05 ± 1.31 µg/mL (≈ 234 µM)
SMILES: O=C(O)c1ccc(O)c(O)c1 [Protochatechuic acid]
